pKi: −log10 of the molar value.
What was measured:
Carbonic anhydrase 7 = Carbonic anhydrase 7 (Homo sapiens, UniProt P43166)
Description: Inhibition of recombinant human carbonic anhydrase 7 incubated for 6 hrs prior to testing measured for 10 to 100 secs by phenol red-based stopped-flow CO2 hydration assay

Carbonic anhydrase 2 = Carbonic anhydrase 2 (Homo sapiens, UniProt P00918)
Description: Inhibition of recombinant human carbonic anhydrase 2 incubated for 6 hrs prior to testing measured for 10 to 100 secs by phenol red-based stopped-flow CO2 hydration assay

Carbonic anhydrase 1 = Carbonic anhydrase 1 (Homo sapiens, UniProt P00915)
Description: Inhibition of recombinant human carbonic anhydrase 1 incubated for 6 hrs prior to testing measured for 10 to 100 secs by phenol red-based stopped-flow CO2 hydration assay

Carbonic anhydrase 4 = Carbonic anhydrase 4 (Homo sapiens, UniProt P22748)
Description: Inhibition of recombinant human carbonic anhydrase 4 incubated for 6 hrs prior to testing measured for 10 to 100 secs by phenol red-based stopped-flow CO2 hydration assay

Oryctolagus cuniculus = assay: Antiglaucoma activity in hypertonic saline solution-induced New Zealand albino rabbit model of ocular hypertension assessed as reduction in intraocular pressure at 1% administered topically to eye measured after 240 mins by pneumotonometric- method; type: functional

Carbonic anhydrase 7, sequence (P43166 whole entry): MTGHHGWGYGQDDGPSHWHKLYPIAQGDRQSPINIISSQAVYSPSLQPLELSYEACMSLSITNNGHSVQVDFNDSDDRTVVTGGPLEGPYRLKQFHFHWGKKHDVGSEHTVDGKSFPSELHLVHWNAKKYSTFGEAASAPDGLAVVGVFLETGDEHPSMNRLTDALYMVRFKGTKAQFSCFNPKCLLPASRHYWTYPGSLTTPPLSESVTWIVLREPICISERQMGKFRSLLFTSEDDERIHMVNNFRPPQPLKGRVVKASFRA
Carbonic anhydrase 1, sequence (P00915 whole entry): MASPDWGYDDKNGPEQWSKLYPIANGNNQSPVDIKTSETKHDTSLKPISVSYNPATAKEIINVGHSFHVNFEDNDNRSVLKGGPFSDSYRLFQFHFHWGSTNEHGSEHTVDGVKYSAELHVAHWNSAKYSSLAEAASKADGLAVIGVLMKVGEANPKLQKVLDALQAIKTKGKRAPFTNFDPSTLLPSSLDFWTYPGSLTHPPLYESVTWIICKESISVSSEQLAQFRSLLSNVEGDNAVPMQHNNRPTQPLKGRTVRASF
Carbonic anhydrase 4, sequence (P22748 whole entry): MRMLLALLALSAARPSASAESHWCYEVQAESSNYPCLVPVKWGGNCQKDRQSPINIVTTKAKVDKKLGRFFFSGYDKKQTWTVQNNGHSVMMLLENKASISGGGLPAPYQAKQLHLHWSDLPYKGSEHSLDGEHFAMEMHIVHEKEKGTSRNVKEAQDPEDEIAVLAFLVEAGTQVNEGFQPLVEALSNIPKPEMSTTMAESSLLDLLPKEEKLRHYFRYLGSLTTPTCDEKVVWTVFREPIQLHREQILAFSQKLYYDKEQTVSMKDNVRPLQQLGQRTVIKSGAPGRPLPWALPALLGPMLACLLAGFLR

Row | Compound | pKi (Carbonic anhydrase 7) | pKi (Carbonic anhydrase 2) | pKi (Carbonic anhydrase 1) | pKi (Carbonic anhydrase 4) | Activity (Oryctolagus cuniculus) [mmHg]
1 | COc1ccc(N/N=C(\C(C)=O)C(=O)Nc2ccc(S(N)(=O)=O)cc2)cc1 | 5.44 | 6.56 | 6.15 | < 5.00 | –
2 | CC(=O)/C(=C\c1ccccc1)C(=O)Nc1ccc(S(N)(=O)=O)cc1 | 7.35 | 8.36 | 7.16 | 6.02 | –
3 | CC(=O)/C(=N\Nc1cccc([N+](=O)[O-])c1)C(=O)Nc1ccc(S(N)(=O)=O)cc1 | 6.10 | 7.15 | 6.12 | < 5.00 | –
4 | COc1ccc(/C=C(\C(C)=O)C(=O)Nc2ccc(S(N)(=O)=O)cc2)cc1 | 8.51 | 9.35 | 7.82 | 6.22 | 1.5
5 | CC(=O)/C(=C\c1ccc(F)cc1Cl)C(=O)Nc1ccc(S(N)(=O)=O)cc1 | 7.63 | 8.25 | 7.28 | 6.65 | –
6 | CC(=O)/C(=C\c1cccs1)C(=O)Nc1ccc(S(N)(=O)=O)cc1 | 8.28 | 8.54 | 7.31 | 6.09 | –
7 | CC(=O)/C(=C\c1ccc(Cl)cc1)C(=O)Nc1ccc(S(N)(=O)=O)cc1 | 8.37 | 9.21 | 7.39 | 6.84 | 1.3
8 | CC(=O)/C(=N\Nc1ccc(Br)cc1)C(=O)Nc1ccc(S(N)(=O)=O)cc1 | < 5.00 | 6.43 | < 5.00 | < 5.00 | –
9 | CC(=O)/C(=N\Nc1ccccc1)C(=O)Nc1ccc(S(N)(=O)=O)cc1 | 6.19 | 8.37 | 7.09 | < 5.00 | –
10 | CC(=O)/C(=C\c1cccc([N+](=O)[O-])c1)C(=O)Nc1ccc(S(N)(=O)=O)cc1 | 7.33 | 8.16 | 7.12 | 6.41 | –
11 | CC(=O)/C(=C\c1ccccc1Cl)C(=O)Nc1ccc(S(N)(=O)=O)cc1 | 8.54 | 9.44 | 8.14 | 6.42 | 2
12 | CC(=O)CC(=O)Nc1ccc(S(N)(=O)=O)cc1 | 6.56 | 7.40 | 7.16 | 6.05 | –
13 | CC(=O)/C(=N\Nc1ccc(C#N)cc1)C(=O)Nc1ccc(S(N)(=O)=O)cc1 | 6.12 | 7.28 | 6.29 | < 5.00 | –
14 | COc1ccc(N/N=C(\C(C)=O)C(=O)Nc2ccc(S(N)(=O)=O)cc2)cc1OC | 8.36 | 8.30 | 7.23 | 5.83 | –

Continued, in another order:

Row | pKi (Carbonic anhydrase 7) | pKi (Carbonic anhydrase 2) | pKi (Carbonic anhydrase 1) | pKi (Carbonic anhydrase 4) | Compound | Activity (Oryctolagus cuniculus) [mmHg]
15 | 7.26 | 7.68 | 7.06 | 5.19 | COc1ccc(N/N=C(\Cl)C(=O)Nc2ccc(S(N)(=O)=O)cc2)cc1 | –
16 | 7.17 | 7.39 | 6.64 | 5.13 | NS(=O)(=O)c1ccc(NC(=O)/C(Cl)=N/Nc2ccccc2)cc1 | –
17 | 5.77 | 8.28 | 5.58 | < 5.00 | CC(=O)/C(=N\Nc1ccc(Cl)cc1)C(=O)Nc1ccc(S(N)(=O)=O)cc1 | –
18 | 7.33 | 7.46 | 6.53 | 5.13 | NS(=O)(=O)c1ccc(NC(=O)/C(Cl)=N/Nc2ccc(F)cc2)cc1 | –
19 | 5.99 | 6.58 | 6.03 | < 5.00 | NS(=O)(=O)c1ccc(NC(=O)/C(Cl)=N/Nc2ccc(Br)cc2)cc1 | –
20 | 8.21 | 8.52 | 7.36 | 6.04 | NS(=O)(=O)c1ccc(NC(=O)/C(Cl)=N/Nc2ccc(Cl)cc2)cc1 | –
21 | 5.48 | 8.09 | 5.57 | < 5.00 | CC(=O)/C(=N\Nc1ccc(F)cc1)C(=O)Nc1ccc(S(N)(=O)=O)cc1 | –

— ChEMBL document CHEMBL4402561, “Discovery of Potent Dual-Tailed Benzenesulfonamide Inhibitors of Human Carbonic Anhydrases Implicated in Glaucoma and in Vivo Profiling of Their Intraocular Pressure-Lowering Action” (J Med Chem, 2020)
